From patent publication US11447489B2, “Dihydropyrimidinylthiazole for the treatment and prophylaxis of hepatitis B virus infection” (priority 2017, dated 2022)

test system: HBsAg; assay: HepG2.2.15 cells primary screen assay: HBsAg assay (CLIA of secreted HBsAg); type: cell-based, HBV; conditions: Hepatitis B virus
Procedure: Example 23: HepG2.2.15 Cells Primary Screen Assay
HepG2.2.15 cells (Acs et al. Proc Natl Acad Sci USA, 84, (1987), 4641-4), a constitutively HBV-expressing cell line were cultured in DMEM+Glutamax-I medium (Invitrogen, Carlsbad, Calif., USA), supplemented with 10% fetal bovine serum (Invitrogen) and G418 (Invitrogen) at a final concentration of 200 mg/L and maintained in 5% CO2 at 37° C.
HepG2.2.15 cells were seeded in duplicate into white, 96-well plates at 1.5×10^4 cells/well. The cells were treated with a three-fold serial dilution series of the compounds in DMSO. The final DMSO concentration in all wells was 1% and DMSO was used as no drug control.
The HBsAg chemiluminescence immunoassay (CLIA) kit (Autobio Diagnostics Co., Zhengzhou, China, Catalog number: CL0310-2) was used to measure the levels of secreted HBV antigens semi-quantitatively. For the detection 50 μL/well culture supernatant was used and HBsAg was quantified using HBsAg chemiluminescence immunoassay (CLIA) kit (Autobio Diagnostics Co., Zhengzhou, China, Catalog number: CL0310-2), 50 μL of the supernatant was transferred to the CLIA assay plate and 50 μL of enzyme conjugate reagent was added into each well. The plates were sealed and gently agitated for 1 hour at room temperature. The supernatant-enzyme-mixture was discarded and wells were washed 6 times with 300 μL of PBS. The residual liquid was removed by plating the CLIA plate […] on absorbent tissue paper. 25 μL of substrates A and B were added to each well. Luminance was measured using a luminometer (Mithras LB 940 Multimode Microplate Reader) after 10 minutes incubation. Dose-response curves were generated and the IC50 value was extrapolated by using the E-WorkBook Suite (ID Business Solutions Ltd., Guildford, UK). The IC50 was defined as the compound concentration (or conditioned media log dilution) at which HBsAg secretion was reduced by 50% compared to the no drug control.
The compounds of the present invention were tested for their capacity to inhibit HBsAg as described herein.

SMILES	IC50 [nM]
COC(=O)C1=C(CN2CCN(c3cc(F)cc(N4CCc5nc(-c6ncccn6)ncc5C4C)n3)C(C(=O)O)C2)NC(c2nccs2)=N[C@H]1c1ccc(F)cc1Cl (stereo partly drawn) [Example 22, 4-[[(4R)-4-(2-chloro-4-fluoro-phenyl)-5-methoxycarbonyl-2-thiazol-2-yl-1,4-dihydropyrimidin-6-yl]methyl]-1-[4-fluoro-6-[5-methyl-2-pyrimidin-2-yl-7,8-dihydro-5H-pyrido[4,3-d]pyrimidin-6-yl]-2-pyridyl]piperazine-2-carboxylic Acid]	618
COC(=O)C1=C(CN2CCOC[C@H]2C(=O)NCCCCCCOc2cc(N3CCc4nc(-c5ncccn5)ncc4C3C)cc(F)c2F)NC(c2nccs2)=N[C@H]1c1ccc(F)cc1Cl (stereo partly drawn) [Example 18, methyl (4R)-4-(2-chloro-4-fluoro-phenyl)-6-[[(3S)-3-[6-[2,3-difluoro-5-(5-methyl-2-pyrimidin-2-yl-7,8-dihydro-5H-pyrido[4,3-d]pyrimidin-6-yl)phenoxy]hexylcarbamoyl]morpholin-4-yl]methyl]-2-thiazol-2-yl-1,4-dihydropyrimidine-5-carboxylate]	912
COC(=O)C1=C(CN2CCOC[C@H]2C(=O)NCCOCCOCCOc2cc3c(cc2OC)-c2cc(=O)c(C(=O)O)cn2C(C(C)(C)C)C3)NC(c2nccs2)=N[C@H]1c1ccc(F)cc1Cl (stereo partly drawn) [Example 10, 6-tert-butyl-9-[2-[2-[2-[[(3S)-4-[[(4R)-4-(2-chloro-4-fluoro-phenyl)-5-methoxycarbonyl-2-thiazol-2-yl-1,4-dihydropyrimidin-6-yl]methyl]morpholine-3-carbonyl]amino]ethoxy]ethoxy]ethoxy]-10-methoxy-2-oxo-6,7-dihydrobenzo[a]quinolizine-3-carboxylic Acid]	569
CCOC(=O)C1=C(CN2CCN3C(=O)N(CC(C)(C)C(=O)NCCCCCCOc4cc5c(cc4OC)-c4cc(=O)c(C(=O)O)cn4C(C(C)(C)C)C5)C[C@@H]3C2)NC(c2nccs2)=N[C@H]1c1cccc(F)c1Cl (stereo partly drawn) [Example 15, 9-[6-[[3-[(8aS)-7-[[(4R)-4-(2-chloro-3-fluoro-phenyl)-5-ethoxycarbonyl-2-thiazol-2-yl-1,4-dihydropyrimidin-6-yl]methyl]-3-oxo-5,6,8,8a-tetrahydro-1H-imidazo[1,5-a]pyrazin-2-yl]-2,2-dimethyl-propanoyl]amino]hexoxy]-6-tert-butyl-10-methoxy-2-oxo-6,7-dihydrobenzo[a]quinolizine-3-carboxylic Acid]	41
COC(=O)C1=C(CN2CCN3C(=O)N(CCCCCCOc4cc5c(cc4OC)-c4cc(=O)c(C(=O)O)cn4C(C(C)(C)C)C5)CC3C2)NC(c2nccs2)=N[C@H]1c1ccc(F)cc1Cl (stereo partly drawn) [Example 8, 6-tert-butyl-9-[6-[7-[[(4R)-4-(2-chloro-4-fluoro-phenyl)-5-methoxycarbonyl-2-thiazol-2-yl-1,4-dihydropyrimidin-6-yl]methyl]-3-oxo-5,6,8,8a-tetrahydro-1H-imidazo[1,5-a]pyrazin-2-yl]hexoxy]-10-methoxy-2-oxo-6,7-dihydrobenzo[a]quinolizine-3-carboxylic Acid]	48
CCOC(=O)C1=C(COCCCCCCOc2cc3c(cc2OC)-c2cc(=O)c(C(=O)O)cn2C(C(C)(C)C)C3)NC(c2nccs2)=NC1c1ccc(F)cc1Cl (stereo not drawn) [Example 14, 6-tert-butyl-9-[6-[[4-(2-chloro-4-fluoro-phenyl)-5-ethoxycarbonyl-2-thiazol-2-yl-1,4-dihydropyrimidin-6-yl]methoxy]hexoxy]-10-methoxy-2-oxo-6,7-dihydrobenzo[a]quinolizine-3-carboxylic Acid]	96
COC(=O)C1=C(CN2CCN(CC[C@@H](NCCCCCCOc3cc(N4CCc5nc(-c6ncccn6)ncc5C4C)cc(F)c3F)C(=O)O)CC2)NC(c2nccs2)=N[C@H]1c1ccc(F)cc1Cl (stereo partly drawn) [Example 21, (2R)-4-[4-[[(4R)-4-(2-chloro-4-fluoro-phenyl)-5-methoxycarbonyl-2-thiazol-2-yl-1,4-dihydropyrimidin-6-yl]methyl]piperazin-1-yl]-2-[6-[2,3-difluoro-5-(5-methyl-2-pyrimidin-2-yl-7,8-dihydro-5H-pyrido[4,3-d]pyrimidin-6-yl)phenoxy]hexylamino]butanoic Acid]	582
COC(=O)C1=C(CN(C)CCCCCCOc2cc3c(cc2OC)-c2cc(=O)c(C(=O)O)cn2C(C(C)(C)C)C3)NC(c2nccs2)=N[C@H]1c1ccc(F)cc1Cl (stereo partly drawn) [Example 9, 6-tert-butyl-9-[6-[[(4R)-4-(2-chloro-4-fluoro-phenyl)-5-methoxycarbonyl-2-thiazol-2-yl-1,4-dihydropyrimidin-6-yl]methyl-methyl-amino]hexoxy]-10-methoxy-2-oxo-6,7-dihydrobenzo[a]quinolizine-3-carboxylic Acid]	113
COC(=O)C1=C(CN2CCN(CCCCOc3cc4c(cc3OC)-c3cc(=O)c(C(=O)O)cn3C(C(C)(C)C)C4)CC2)NC(c2nccs2)=N[C@H]1c1ccc(F)cc1Cl (stereo partly drawn) [Example 3, 6-tert-butyl-9-[4-[4-[[(4R)-4-(2-chloro-4-fluoro-phenyl)-5-methoxycarbonyl-2-thiazol-2-yl-1,4-dihydropyrimidin-6-yl]methyl]piperazin-1-yl]butoxy]-10-methoxy-2-oxo-6,7-dihydrobenzo[a]quinolizine-3-carboxylic Acid]	45
COC(=O)C1=C(CN2CCN3C(=O)N(CC(C)(C)CC(=O)NCCCCCCOc4cc5c(cc4OC)-c4cc(=O)c(C(=O)O)cn4C(C(C)(C)C)C5)C[C@@H]3C2)NC(c2nccs2)=N[C@H]1c1ccc(F)cc1Cl (stereo partly drawn) [Example 16, 9-[6-[[4-[(8aS)-7-[[(4R)-4-(2-chloro-4-fluoro-phenyl)-5-methoxycarbonyl-2-thiazol-2-yl-1,4-dihydropyrimidin-6-yl]methyl]-3-oxo-5,6,8,8a-tetrahydro-1H-imidazo[1,5-a]pyrazin-2-yl]-3,3-dimethyl-butanoyl]amino]hexoxy]-6-tert-butyl-10-methoxy-2-oxo-6,7-dihydrobenzo[a]quinolizine-3-carboxylic Acid]	107
COC(=O)C1=C(CN2CCN(CCCOc3cc4c(cc3OC)-c3cc(=O)c(C(=O)O)cn3C(C(C)(C)C)C4)C(C(=O)O)C2)NC(c2nccs2)=N[C@H]1c1ccc(F)cc1Cl (stereo partly drawn) [Example 5, 6-tert-butyl-9-[3-[2-carboxy-4-[[(4R)-4-(2-chloro-4-fluoro-phenyl)-5-methoxycarbonyl-2-thiazol-2-yl-1,4-dihydropyrimidin-6-yl]methyl]piperazin-1-yl]propoxy]-10-methoxy-2-oxo-6,7-dihydrobenzo[a]quinolizine-3-carboxylic Acid]	3480
COC(=O)C1=C(CN2CCN(CCCCCCOc3cc4c(cc3OC)-c3cc(=O)c(C(=O)O)cn3C(C(C)(C)C)C4)C(C(=O)O)C2)NC(c2nccs2)=N[C@H]1c1ccc(F)cc1Cl (stereo partly drawn) [Example 7, 6-tert-butyl-9-[6-[2-carboxy-4-[[(4R)-4-(2-chloro-4-fluoro-phenyl)-5-methoxycarbonyl-2-thiazol-2-yl-1,4-dihydropyrimidin-6-yl]methyl]piperazin-1-yl]hexoxy]-10-methoxy-2-oxo-6,7-dihydrobenzo[a]quinolizine-3-carboxylic Acid]	190
COC(=O)C1=C(CN2CCN(CCCCCCOc3cc4c(cc3OC)-c3cc(=O)c(C(=O)O)cn3C(C(C)(C)C)C4)CC2C(=O)O)NC(c2nccs2)=N[C@H]1c1ccc(F)cc1Cl (stereo partly drawn) [Example 6, 6-tert-butyl-9-[6-[3-carboxy-4-[[(4R)-4-(2-chloro-4-fluoro-phenyl)-5-methoxycarbonyl-2-thiazol-2-yl-1,4-dihydropyrimidin-6-yl]methyl]piperazin-1-yl]hexoxy]-10-methoxy-2-oxo-6,7-dihydrobenzo[a]quinolizine-3-carboxylic Acid]	262
COC(=O)C1=C(CN2CCOC[C@H]2C(=O)NCCCCCCOc2cc3c(cc2OC)-c2cc(=O)c(C(=O)O)cn2C(C(C)(C)C)C3)NC(c2nccs2)=N[C@H]1c1ccc(F)cc1Cl (stereo partly drawn) [Example 13, 6-tert-butyl-9-[6-[[(3S)-4-[[(4R)-4-(2-chloro-4-fluoro-phenyl)-5-methoxycarbonyl-2-thiazol-2-yl-1,4-dihydropyrimidin-6-yl]methyl]morpholine-3-carbonyl]amino]hexoxy]-10-methoxy-2-oxo-6,7-dihydrobenzo[a]quinolizine-3-carboxylic Acid]	85
COC(=O)C1=C(COc2cc(N3CCc4nc(-c5ncccn5)ncc4C3C)cc(F)c2F)NC(c2nccs2)=N[C@H]1c1ccc(F)cc1Cl (stereo partly drawn) [Example 20, methyl (4R)-4-(2-chloro-4-fluoro-phenyl)-6-[[2,3-difluoro-5-(5-methyl-2-pyrimidin-2-yl-7,8-dihydro-5H-pyrido[4,3-d]pyrimidin-6-yl)phenoxy]methyl]-2-thiazol-2-yl-1,4-dihydropyrimidine-5-carboxylate]	824
